# From patent US20220401564A1 (DANA-FARBER CANCER INSTITUTE, INC., priority 2019, published 2022)
# Experiments:
# HDAC1 = target: T1, HDAC1 (Homo sapiens, UniProt Q13547); assay: HDAC enzymatic assay (Reaction Biology), fluorogenic substrate; format: biochemical
# T1 construct: purchased Reaction Biology
# Protocol: (§1) Compounds 2 and 9 were tested in an enzymatic assay from Reaction Biology® against HDAC isoforms.
# (§2) Base Reaction buffer: 50 mM Tris-HCl, pH8.0, 137 mM NaCl, 2.7 mM KCl, and 1 mM MgCl2. Add fresh: 1 mg/ml BSA, 1% DMSO
# (§3) Fluorogenic HDAC General Substrate (HDAC1, HDAC2, HDAC3, HDAC6, HDAC10, and HDAC11): 50 μM, Arg-His-Lys-Lys(Ac)-AMC
# (§4) 1. Delivered 2X enzyme in wells of reaction plate except in the control wells and added buffer to control wells. 2. Delivered compounds in 100% DMSO into the enzyme mixture by Acoustic technology (Echo550; nanoliter range). Spin down and pre-incubation. 3. Delivered 2X Substrate Mixture (Fluorogenic HDAC Substrate and co-factor if applicable) in all reaction wells to initiate the reaction. Spin and shake. 4. Incubated for 30 min for Class 2A, 1 h for HDAC1, 2, 3, and 6, and 2 h for the rest of HDAC isoforms and SIRTs at 30° C. with seal.
# (§5) 5. Added Developer with Trichostatin A (or Nicotinamide for SIRTs) to stop the reaction and to generate fluorescent color. 6. The fluorescence that was generated was detected with excitation (Ex) at […] and emission (Em) at 460 nM by the EnVision Multilabel Plate Reader (PerkinElmer®, Santa Clara, Calif., USA).
# (§6) IC50 values were derived from a 10-dose response curve. As shown in Tables 1-2, the addition of a linker and CRBN targeting group altered the isoform selectivity of the SAHA-based degrader compounds.
# HDAC2 = target: T2, HDAC2 (Homo sapiens, UniProt Q92769); assay: as above; format: biochemical
# T2 construct: purchased Reaction Biology
# T2 sequence (Q92769 whole entry): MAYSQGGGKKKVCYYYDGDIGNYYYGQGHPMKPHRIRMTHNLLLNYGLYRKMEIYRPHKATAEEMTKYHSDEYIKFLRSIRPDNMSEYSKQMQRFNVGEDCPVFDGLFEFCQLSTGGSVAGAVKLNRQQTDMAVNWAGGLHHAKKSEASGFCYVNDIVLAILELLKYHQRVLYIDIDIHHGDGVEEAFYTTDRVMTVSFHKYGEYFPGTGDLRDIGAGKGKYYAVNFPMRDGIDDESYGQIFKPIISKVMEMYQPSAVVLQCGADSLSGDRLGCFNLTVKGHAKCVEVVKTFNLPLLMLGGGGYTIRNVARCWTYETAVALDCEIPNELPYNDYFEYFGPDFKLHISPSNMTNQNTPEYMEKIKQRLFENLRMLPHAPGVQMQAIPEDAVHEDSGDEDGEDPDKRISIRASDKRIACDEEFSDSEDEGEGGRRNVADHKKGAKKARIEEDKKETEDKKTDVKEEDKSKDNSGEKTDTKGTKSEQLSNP
# Protocol: as §1, §2, §3, §4, §5, §6
# VHL = target: T3, VHL (Homo sapiens, UniProt P40337); assay: Cellular VHL engagement assay (BRD4BD2-GFP / mCherry reporter cells); format: cell-based; settings: with 250 nM AT1, 5 h
# T3 construct: Cells stably expressing the BRD4BD2-GFP with mCherry reporter (40) were seeded; endogenous in cells
# T3 sequence (P40337 whole entry, species assumed): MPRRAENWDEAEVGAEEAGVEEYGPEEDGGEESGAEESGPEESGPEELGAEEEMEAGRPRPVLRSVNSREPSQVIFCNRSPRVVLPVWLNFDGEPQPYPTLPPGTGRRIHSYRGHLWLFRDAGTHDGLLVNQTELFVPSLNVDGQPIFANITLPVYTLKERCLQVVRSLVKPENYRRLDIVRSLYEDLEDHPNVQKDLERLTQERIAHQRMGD
# Protocol: Cells stably expressing the BRD4BD2-GFP with mCherry reporter (40) were seeded at 30-50% confluency in 384-well plates with 50 μL per well of FluoroBrite™ DMEM media (Thermo Fisher Scientific, A18967) supplemented with 10% FBS a day before compound treatment. Compounds and 250 nM AT1((2S,4R)-1-(2R)-2-Acetamido-3-[[6-[2-[(6S)-4-(4-chlorophenyl)-2,3,9-trimethyl-6H-thieno[3,2-f][1,2,4]triazolo[4,3-a][1,4]diazepin-6-yl]acetamido]hexyl]thio]-3-methylbutanoyl]-4-hydroxy-N-[4-(4-methylthiazol-5-yl)benzyl)pyrrolidinine-2-carboxamide) were dispensed using a D300e Digital Dispenser (HP), normalized to 0.5% DMSO, and incubated with the cells for 5 h. The assay plate was imaged immediately using an Acumen® High Content Imager (TTP Labtech) with 488 nm and 561 nm lasers in a […] grid per well format. The resulting images were analyzed using CellProfiler™.
# A series of image analysis steps (an ‘image analysis pipeline’) was constructed. First, the red and green channels were aligned and cropped to target the middle of each well (to avoid analysis of the heavily clumped cells at the edges). A background illumination function was calculated for both red and green channels of each well individually and subtracted to correct for illumination variations across the 384-well plate from various sources of error. An additional step was then applied to the green channel to suppress the analysis of large auto fluorescent artifacts and enhance the analysis of cell specific fluorescence by way of selecting for objects under a given size (30 A.U.) and with a given shape (speckles). mCherry-positive cells were then identified in the red channel by filtering for objects 8-60 pixels in diameter and by using intensity to distinguish between clumped objects. The green channel was then segmented into GFP positive and negative areas and objects were labeled as GFP positive if at least 40% of it overlapped with a GFP positive area. The fraction of GFP-positive cells/mCherry-positive cells in each well was then calculated, and the green and red images were rescaled for visualization.
# HDAC3 = HDAC3 (Homo sapiens, UniProt O15379); assay: HDAC enzymatic assay (Reaction Biology), fluorogenic substrate; format: biochemical; design: purchased Reaction Biology
# Sequence of HDAC3 (O15379 whole entry): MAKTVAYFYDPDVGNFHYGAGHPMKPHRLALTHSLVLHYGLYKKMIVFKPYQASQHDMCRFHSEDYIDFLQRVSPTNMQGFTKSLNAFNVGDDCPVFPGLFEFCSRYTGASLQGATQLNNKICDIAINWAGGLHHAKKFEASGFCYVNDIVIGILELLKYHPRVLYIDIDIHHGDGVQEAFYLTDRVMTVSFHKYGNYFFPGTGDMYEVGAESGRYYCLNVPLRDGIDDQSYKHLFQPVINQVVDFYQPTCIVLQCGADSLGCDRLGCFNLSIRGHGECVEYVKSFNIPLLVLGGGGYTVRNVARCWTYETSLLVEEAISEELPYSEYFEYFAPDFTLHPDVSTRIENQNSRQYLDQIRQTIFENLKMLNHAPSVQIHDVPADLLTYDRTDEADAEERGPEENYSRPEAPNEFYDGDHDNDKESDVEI
# Sequence of HDAC3 (Q9Y618 395-489 partner limits assumed): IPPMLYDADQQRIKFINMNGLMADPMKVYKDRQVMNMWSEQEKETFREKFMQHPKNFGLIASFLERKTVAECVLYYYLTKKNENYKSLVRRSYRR
# Protocol: as §1, §2, §3, §4, §5, §6
# HDAC6 = target: T4, HDAC6 (Homo sapiens, UniProt Q9UBN7); assay: as above; format: biochemical; design: purchased Reaction Biology
# T4 sequence (Q9UBN7 1-1215): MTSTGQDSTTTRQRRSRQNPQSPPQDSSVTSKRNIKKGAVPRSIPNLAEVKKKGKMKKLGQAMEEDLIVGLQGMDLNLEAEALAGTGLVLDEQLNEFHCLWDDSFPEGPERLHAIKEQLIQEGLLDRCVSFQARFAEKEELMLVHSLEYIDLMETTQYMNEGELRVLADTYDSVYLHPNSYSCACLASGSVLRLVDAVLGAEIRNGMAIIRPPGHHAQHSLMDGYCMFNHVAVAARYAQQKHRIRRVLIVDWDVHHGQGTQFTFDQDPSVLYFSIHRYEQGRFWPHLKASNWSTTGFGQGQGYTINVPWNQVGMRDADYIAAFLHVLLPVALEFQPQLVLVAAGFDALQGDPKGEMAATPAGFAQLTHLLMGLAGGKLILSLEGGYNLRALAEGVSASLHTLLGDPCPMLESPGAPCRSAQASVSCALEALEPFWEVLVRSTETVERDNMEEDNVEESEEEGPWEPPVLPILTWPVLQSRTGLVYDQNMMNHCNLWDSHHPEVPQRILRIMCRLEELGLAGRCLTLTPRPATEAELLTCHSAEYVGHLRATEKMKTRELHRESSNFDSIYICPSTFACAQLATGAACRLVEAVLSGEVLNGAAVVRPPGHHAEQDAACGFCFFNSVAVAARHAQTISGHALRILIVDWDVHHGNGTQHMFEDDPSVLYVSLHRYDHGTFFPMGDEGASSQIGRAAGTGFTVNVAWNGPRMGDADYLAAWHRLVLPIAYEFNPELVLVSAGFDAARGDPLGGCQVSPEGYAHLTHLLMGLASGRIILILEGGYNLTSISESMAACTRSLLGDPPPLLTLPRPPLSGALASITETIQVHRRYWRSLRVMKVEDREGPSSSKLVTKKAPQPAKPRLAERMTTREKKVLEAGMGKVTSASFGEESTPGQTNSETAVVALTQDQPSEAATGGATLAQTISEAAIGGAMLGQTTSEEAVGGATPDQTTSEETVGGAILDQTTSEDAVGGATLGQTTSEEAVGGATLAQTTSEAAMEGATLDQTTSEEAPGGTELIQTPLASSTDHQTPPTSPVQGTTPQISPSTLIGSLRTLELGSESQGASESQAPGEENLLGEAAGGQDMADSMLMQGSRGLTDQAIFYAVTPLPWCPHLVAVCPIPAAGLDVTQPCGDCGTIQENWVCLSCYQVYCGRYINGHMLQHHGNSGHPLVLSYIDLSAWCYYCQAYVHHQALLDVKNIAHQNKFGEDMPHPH
# Protocol: as §1, §2, §3, §4, §5, §6
# HDAC8 = target: T5, HDAC8 (Homo sapiens, UniProt Q9BY41); assay: HDAC enzymatic assay (Reaction Biology), HDAC8 substrate; format: biochemical; design: purchased Reaction Biology
# T5 sequence (Q9BY41 1-377): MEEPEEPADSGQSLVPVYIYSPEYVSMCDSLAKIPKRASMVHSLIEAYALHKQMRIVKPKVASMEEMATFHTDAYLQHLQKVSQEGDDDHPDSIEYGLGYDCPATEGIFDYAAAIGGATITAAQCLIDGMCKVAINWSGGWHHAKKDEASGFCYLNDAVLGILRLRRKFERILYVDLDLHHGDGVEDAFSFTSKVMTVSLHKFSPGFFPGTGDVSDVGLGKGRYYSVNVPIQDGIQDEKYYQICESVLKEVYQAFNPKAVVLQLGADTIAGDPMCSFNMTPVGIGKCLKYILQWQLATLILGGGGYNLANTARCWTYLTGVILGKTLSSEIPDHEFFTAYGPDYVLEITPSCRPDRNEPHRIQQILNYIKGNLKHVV
# Protocol: as §1, §2
# (HDAC8 only substrate: 50 μM, Arg-His-Lys(Ac)-Lys(Ac))-AMC
# as §4, §5, §6
# T1 sequence (Q13547 whole entry): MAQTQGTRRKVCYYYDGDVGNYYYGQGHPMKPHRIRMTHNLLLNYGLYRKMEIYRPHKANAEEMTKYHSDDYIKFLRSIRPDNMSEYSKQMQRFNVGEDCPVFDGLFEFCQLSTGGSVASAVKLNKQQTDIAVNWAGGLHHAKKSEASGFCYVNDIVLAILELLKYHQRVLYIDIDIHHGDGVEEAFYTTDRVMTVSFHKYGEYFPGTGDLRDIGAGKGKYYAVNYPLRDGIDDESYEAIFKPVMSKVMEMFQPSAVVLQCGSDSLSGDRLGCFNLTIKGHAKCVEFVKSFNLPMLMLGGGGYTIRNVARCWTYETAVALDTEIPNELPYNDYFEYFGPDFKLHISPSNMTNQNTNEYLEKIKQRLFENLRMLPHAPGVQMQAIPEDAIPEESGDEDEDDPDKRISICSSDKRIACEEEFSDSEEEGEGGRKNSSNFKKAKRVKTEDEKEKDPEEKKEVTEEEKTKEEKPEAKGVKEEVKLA
smiles,measurement,setting,value
"Cc1ncsc1-c1ccc([C@H](C)NC(=O)[C@@H]2C[C@@H](O)CN2C(=O)[C@@H](NC(=O)CCOCCN(CCc2c[nH]c3ccccc23)Cc2ccc(/C=C/C(=O)Nc3ccccc3N)cc2)C(C)(C)C)cc1 [Compound 9, (2S,4R)-1-((S)-2-(3-(2-((2-(1H-indol-3-yl)ethyl)(4-((E)-3-((2-aminophenyl)amino)-3-oxoprop-1-en-1-yl)benzyl)amino)ethoxy)propanamido)-3,3-dimethylbutanoyl)-4-hydroxy-N—((S)-1-(4-(4-methylthiazol-5-yl)phenyl)ethyl)pyrrolidine-2-carboxamide]",inhibition of HDAC1 deacetylase activity in vitro (in words),HDAC1,moderate inhibition
same,IC50,"HDAC1; 10-dose response curve, read-out: Compound IC50 (M), HDAC1",9.5e-06 M
same,inhibition of HDAC2 deacetylase activity in vitro (in words),HDAC2,moderate inhibition
same,IC50,"HDAC2; 10-dose response curve, read-out: Compound IC50 (M), HDAC2",1.15e-05 M
same,IC50,VHL,298 µM
same,inhibition of HDAC3 deacetylase activity in vitro (in words),HDAC3,moderate inhibition
same,IC50,"HDAC3; 10-dose response curve, read-out: Compound IC50 (M), HDAC3",1.12e-05 M
same,inhibition of HDAC6 activity in vitro (in words),HDAC6,did not inhibit
same,inhibition of HDAC8 deacetylase activity in vitro (in words),HDAC8,did not inhibit
